Results on 28 molecules are retold here after patent US10471046B2, “Method for treating, preventing, or reducing the risk of skin infection” (Melinta Subsidiary Corp., priority 2014, dated 2019).

This assay relates to S. aureus. The assay can be described thus: Minimum inhibitory concentrations (MICs) for S. aureus of exemplary compounds (Table 2). In kind it is cell-based. The conditions noted are these: Staphylococcus aureus, read-out: MICs. An excerpt:
Exemplary compounds in accordance with the invention are listed in Table 2 with their minimum inhibitory concentrations (MICs) (μg/mL) for S. aureus:
Furthermore, the antibiotic compounds can be assayed for anti-proliferative or anti-infective properties on a cellular level. For example, where the target organism is a microorganism, the activity of compounds of interest can be assayed by growing the microorganisms of interest in media either containing or lacking the compound. Growth inhibition can be indicative that the molecule could be acting as a protein synthesis inhibitor. […] For this purpose, a panel of bacterial strains can be assembled to include a variety of target pathogenic species, some containing resistance mechanisms that have been characterized. Use of such a panel of organisms permits the determination of structure-activity relationships not only in regards to potency and spectrum, but also with a view to obviating resistance mechanisms. The assays can be performed in microtiter trays according to conventional methodologies as published by The National Committee for Clinical Laboratory Standards (NCCLS) guidelines (NCCLS. M7-A5-Methods for Dilution Antimicrobial Susceptibility Tests for Bacteria That Grow Aerobically; Approved Standard-Fifth Edition. NCCLS Document M100-S12/M7 (ISBN 1-56238-394-9)).

Setting [1] is: minimum inhibitory concentrations for S. aureus.

In brackets after ≈: the same amount, converted by molar mass. Read-outs that look alike come from different tables or passages of the source.

`CC(=O)NC[C@H]1CN(c2ccc(-c3ccc(CN4CCN(CC(N)=O)CC4)cc3)c(F)c2)C(=O)O1` [Compound 1003, 2-(4-{4′-[5-(S)-(Acetylamino-methyl)-2-oxo-oxazolidin-3-yl]-2′-fluoro-biphenyl-4-ylmethyl}-piperazin-1-yl)-acetamide]: the MIC under setting [1] is 2 µg/mL (≈ 4.14 µM).

Regarding `CC(=O)NC[C@H]1CN(c2ccc(-c3ccc(CN4CCN(CC#N)CC4)cc3)c(F)c2)C(=O)O1` [Compound 1004, N-{3-[4′-(4-Cyanomethyl-piperazin-1-ylmethyl)-2-fluoro-biphenyl-4-yl]-2-oxo-oxazolidin-5-(S)-ylmethyl}-acetamide], under setting [1], the MIC is 2 µg/mL (≈ 4.3 µM). `CC(=O)NC[C@H]1CN(c2ccc(-c3ccc(CN4CCN(CC#N)CC4)c(F)c3)c(F)c2)C(=O)O1` [Compound 1005, N-{3-[4′-(4-Cyanomethyl-piperazin-1-ylmethyl)-2,3′-difluoro-biphenyl-4-yl]-2-oxo-oxazolidin-5-(S)-ylmethyl}-acetamide]: under setting [1], the MIC is 2 µg/mL (≈ 4.14 µM). Still for that read-out and setting: as for `CC(=O)NC[C@H]1CN(c2ccc(-c3ccc(CN4CCN(C=O)CC4)cc3)c(F)c2)C(=O)O1` [Compound 1006, N-{3-[2-Fluoro-4′-(4-formyl-piperazin-1-ylmethyl)-biphenyl-4-yl]-2-oxo-oxazolidin-5-(S)-ylmethyl}-acetamide], the figure is 0.5 µg/mL (≈ 1.1 µM); as for `CC(=O)NC[C@H]1CN(c2ccc(-c3ccc(Cc4nnn[nH]4)cc3)c(F)c2)C(=O)O1` [Compound 1007, N-{3-[2-Fluoro-4′-(1H-tetrazol-5-(S)-ylmethyl)-biphenyl-4-yl]-2-oxo-oxazolidin-5-(S)-ylmethyl}-acetamide], 8 µg/mL (≈ 19.5 µM); as for `CC(=O)NC[C@H]1CN(c2ccc(-c3ccc(Cn4ccnc4)cc3)c(F)c2)C(=O)O1` [Compound 1008, N-[3-(2-Fluoro-4′-imidazol-1-ylmethyl-biphenyl-4-yl)-2-oxo-oxazolidin-5-(S)-ylmethyl]-acetamide], 0.5 µg/mL (≈ 1.22 µM).

Turning to `CC(=O)NC[C@H]1CN(c2ccc(-c3ccc(Cn4ccnn4)c(F)c3)c(F)c2)C(=O)O1` [Compound 1009, N-[3-(2,3′-Difluoro-4′-[1,2,3]triazol-1-ylmethyl-biphenyl-4-yl)-2-oxo-oxazolidin-5-(S)-ylmethyl]-acetamide], the MIC under setting [1] was found to be 0.25 µg/mL (≈ 0.585 µM). For `CC(=O)NC[C@H]1CN(c2ccc(-c3ccc(Cn4ccnc4)c(F)c3)c(F)c2)C(=O)O1` [Compound 1010, N-[3-(2,3′-Difluoro-4′-imidazol-1-ylmethyl-biphenyl-4-yl)-2-oxo-oxazolidin-5-(S)-ylmethyl]-acetamide], the MIC under setting [1] came to 1 µg/mL (≈ 2.35 µM). `CC(=O)NC[C@H]1CN(c2ccc(-c3ccc(Cn4cc(CN)nn4)cc3)c(F)c2)C(=O)O1` [Compound 1011, N-{3-[4′-(4-Aminomethyl-[1,2,3]triazol-1-ylmethyl)-2-fluoro-biphenyl-4-yl]-2-oxo-oxazolidin-5-(S)-ylmethyl}-acetamide]: the MIC under setting [1] was 1 µg/mL (≈ 2.28 µM).

In the case of `CNCc1cn(Cc2ccc(-c3ccc(N4C[C@H](CNC(C)=O)OC4=O)cc3F)cc2)nn1` [Compound 1012, N-{3-[2-Fluoro-4′-(4-methylaminomethyl-[1,2,3]triazol-1-ylmethyl)-biphenyl-4-yl]-2-oxo-oxazolidin-5-(S)-ylmethyl}-acetamide], the MIC under setting [1] was 2 µg/mL (≈ 4.42 µM). With `CC(=O)NC[C@H]1CN(c2ccc(-c3ccc(Cn4cc(CN(C)C)nn4)cc3)c(F)c2)C(=O)O1` [Compound 1013, N-{3-[4′-(4-Dimethylaminomethyl-[1,2,3]triazol-1-ylmethyl)-2-fluoro-biphenyl-4-yl]-2-oxo-oxazolidin-5-(S)-ylmethyl}-acetamide], the MIC under setting [1] worked out at 4 µg/mL (≈ 8.57 µM). Consider `CC(=O)NC[C@H]1CN(c2ccc(-c3ccc(Cn4cc(CNC(=O)CN)nn4)cc3)c(F)c2)C(=O)O1` [Compound 1014, N-(1-{4′-[5-(S)-(Acetylamino-methyl)-2-oxo-oxazolidin-3-yl]-2′-fluoro-biphenyl-4-ylmethyl}-1H-[1,2,3]triazol-4-ylmethyl)-2-amino-acetamide], for which the MIC under setting [1] is 8 µg/mL (≈ 16.1 µM).

On to `CC(=O)NC[C@H]1CN(c2ccc(-c3ccc(Cn4ccnn4)cc3)c(F)c2)C(=O)O1` [Compound 1015, N-[3-(2-Fluoro-4′-[1,2,3]triazol-1-ylmethyl-biphenyl-4-yl)-2-oxo-oxazolidin-5-(S)-ylmethyl]-acetamide], for which the MIC under setting [1] amounted to 0.25 µg/mL (≈ 0.611 µM).

Regarding `CC(=O)NC[C@H]1CN(c2ccc(-c3ccc(Cc4nc(=O)o[nH]4)cc3)c(F)c2)C(=O)O1` [Compound 1016, N-{3-[2-Fluoro-4′-(5-(S)-oxo-2,5-(S)-dihydro-[1,2,4]oxadiazol-3-ylmethyl)-biphenyl-4-yl]-2-oxo-oxazolidin-5-(S)-ylmethyl}-acetamide], the MIC came out at 4 µg/mL (≈ 9.38 µM). On to `CC(=O)NC[C@H]1CN(c2ccc(-c3ccc(Cc4noc(C)n4)cc3)c(F)c2)C(=O)O1` [Compound 1017, N-{3-[2-Fluoro-4′-(5-(S)-methyl-[1,2,4]oxadiazol-3-ylmethyl)-biphenyl-4-yl]-2-oxo-oxazolidin-5-(S)-ylmethyl}-acetamide], for which the MIC under setting [1] was determined as 1 µg/mL (≈ 2.36 µM).

With `CC(=O)NC[C@H]1CN(c2cc(F)c(-c3ccc(Cn4cc(CO)nn4)cc3)c(F)c2)C(=O)O1` [Compound 1018, N-{3-[2,6-Difluoro-4′-(4-hydroxymethyl-[1,2,3]triazol-1-ylmethyl)-biphenyl-4-yl]-2-oxo-oxazolidin-5-(S)-ylmethyl}-acetamide], the MIC was determined as 1 µg/mL (≈ 2.19 µM). The same measure, in the same setting: with `CC(=O)NC[C@H]1CN(c2cc(F)c(-c3ccc(Cn4cc(CN(C)C)nn4)cc3)c(F)c2)C(=O)O1` [Compound 1019, N-{3-[4′-(4-Dimethylaminomethyl-[1,2,3]triazol-1-ylmethyl)-2,6-difluoro-biphenyl-4-yl]-2-oxo-oxazolidin-5-(S)-ylmethyl}-acetamide] the figure was 2 µg/mL (≈ 4.13 µM). `CC(=O)NC[C@H]1CN(c2ccc(-c3ccc(Cc4csc(NCC5CCCO5)n4)cc3)c(F)c2)C(=O)O1` (stereo partly drawn) [Compound 1020, N-[3-(2-Fluoro-4′-{2-[(tetrahydro-furan-2-ylmethyl)-amino]-thiazol-4-ylmethyl}-biphenyl-4-yl)-2-oxo-oxazolidin-5-(S)-ylmethyl]-acetamide]: the MIC turned out to be 1 µg/mL (≈ 1.91 µM). Same read-out and setting: with `COc1cccc(CNc2nc(Cc3ccc(-c4ccc(N5C[C@H](CNC(C)=O)OC5=O)cc4F)cc3)cs2)c1` [Compound 1021, N-(3-{2-Fluoro-4′-[2-(3-methoxy-benzylamino)-thiazol-4-ylmethyl]-biphenyl-4-yl}-2-oxo-oxazolidin-5-(S)-ylmethyl)-acetamide] the figure was 1 µg/mL (≈ 1.78 µM). As to `CC(=O)NC[C@H]1CN(c2ccc(-c3ccc(CN4CC(C#N)C4)cc3)c(F)c2)C(=O)O1` [Compound 1022, N-{3-[4′-(3-Cyano-azetidin-1-ylmethyl)-2-fluoro-biphenyl-4-yl]-2-oxo-oxazolidin-5-(S)-ylmethyl}-acetamide], the MIC is 0.25 µg/mL (≈ 0.592 µM). Consider `CC(=O)NC[C@H]1CN(c2ccc(-c3ccc(Cn4nccn4)cc3)c(F)c2)C(=O)O1` [Compound 1023, N-[3-(2-Fluoro-4′-[1,2,3]triazol-2-ylmethyl-biphenyl-4-yl)-2-oxo-oxazolidin-5-(S)-ylmethyl]-acetamide], for which the MIC under setting [1] was 0.25 µg/mL (≈ 0.611 µM).

`CC(=O)NC[C@H]1CN(c2ccc(-c3ccc(Cn4nnc(N)n4)cc3)c(F)c2)C(=O)O1` [Compound 1024, N-{3-[4′-(5-Amino-tetrazol-2-ylmethyl)-2-fluoro-biphenyl-4-yl]-2-oxo-oxazolidin-5-(S)-ylmethyl}-acetamide]: the MIC under setting [1] was determined as 0.25 µg/mL (≈ 0.588 µM). Regarding `CC(=O)NC[C@H]1CN(c2ccc(-c3ccc(Cn4nnnc4N)cc3)c(F)c2)C(=O)O1` [Compound 1025, N-{3-[4′-(5-Amino-tetrazol-1-ylmethyl)-2-fluoro-biphenyl-4-yl]-2-oxo-oxazolidin-5-(S)-ylmethyl}-acetamide], under setting [1], the MIC stood at 0.5 µg/mL (≈ 1.18 µM). As to `CC(=O)NC[C@H]1CN(c2ccc(-c3ccc(Cn4nnc(C(N)=O)c4N)cc3)c(F)c2)C(=O)O1` [Compound 1026, 1-{4′-[5-(S)-(Acetylamino-methyl)-2-oxo-oxazolidin-3-yl]-2′-fluoro-biphenyl-4-ylmethyl}-5-amino-1H-[1,2,3]triazole-4-carboxylic acid amide], the MIC under setting [1] was determined as 2 µg/mL (≈ 4.28 µM). Consider `CC(=O)NC[C@H]1CN(c2ccc(-c3ccc(Cn4nnc5c(=O)[nH]cnc54)cc3)c(F)c2)C(=O)O1` [Compound 1027, N-{3-[2-Fluoro-4′-(7-oxo-6,7-dihydro-[1,2,3]triazolo[4,5-d]pyrimidin-3-ylmethyl)-biphenyl-4-yl]-2-oxo-oxazolidin-5-(S)-ylmethyl}-acetamide], for which the MIC under setting [1] stood at 1 µg/mL (≈ 2.09 µM). As for `CC(=O)NC[C@H]1CN(c2ccc(-c3ccc(Cn4cc(CO)nn4)cc3)c(F)c2)C(=O)O1` [Compound 1028, N-{3-[2-Fluoro-4′-(4-hydroxymethyl-[1,2,3]triazol-1-ylmethyl)-biphenyl-4-yl]-2-oxo-oxazolidin-5-(S)-ylmethyl}-acetamide], under setting [1], the MIC was determined as 1 µg/mL (≈ 2.28 µM). As to `CC(=O)NC[C@H]1CN(c2ccc(-c3ccc(CN4CCN(CCO)CC4)cc3)c(F)c2)C(=O)O1` [Compound 1029, N-(3-{2-Fluoro-4′-[4-(2-hydroxy-ethyl)-piperazin-1-ylmethyl]-biphenyl-4-yl}-2-oxo-oxazolidin-5-(S)-ylmethyl)-acetamide], the MIC under setting [1] was determined as 2 µg/mL (≈ 4.25 µM). For `CC(=O)NC[C@H]1CN(c2ccc(-c3ccc(CN4CCC(CCO)CC4)cc3)c(F)c2)C(=O)O1` [Compound 1030, N-(3-{2-Fluoro-4′-[4-(2-hydroxy-ethyl)-piperidin-1-ylmethyl]-biphenyl-4-yl}-2-oxo-oxazolidin-5-(S)-ylmethyl)-acetamide], the MIC under setting [1] was 2 µg/mL (≈ 4.26 µM).
